Laboratory results published in patent US5635510A, “Substituted pyrrolidin-3-yl-alkyl-piperidines” (Merrell Pharmaceuticals Inc., priority 1994, dated 1997).
Counter-ions that a name gives are not always drawn.

Experiments:
[1] = biological target: T1, NK1 receptor (Homo sapiens, UniProt P25103); experiment: Antagonism of NK1 receptor mediated (SP-induced) phosphatidylinositol turnover in UC11 cells; assay type: cell-based; conditions: for relative antagonism of NK1 and NK2 receptors (in words): PI turnover, UC11 (NK1) versus SKLKB82#3 (NK2) cells
T1 construct: antagonizes both NK1 (on UC11 cells); endogenous in cells; host or cells: UC11 cells
T1 sequence (P25103 whole entry): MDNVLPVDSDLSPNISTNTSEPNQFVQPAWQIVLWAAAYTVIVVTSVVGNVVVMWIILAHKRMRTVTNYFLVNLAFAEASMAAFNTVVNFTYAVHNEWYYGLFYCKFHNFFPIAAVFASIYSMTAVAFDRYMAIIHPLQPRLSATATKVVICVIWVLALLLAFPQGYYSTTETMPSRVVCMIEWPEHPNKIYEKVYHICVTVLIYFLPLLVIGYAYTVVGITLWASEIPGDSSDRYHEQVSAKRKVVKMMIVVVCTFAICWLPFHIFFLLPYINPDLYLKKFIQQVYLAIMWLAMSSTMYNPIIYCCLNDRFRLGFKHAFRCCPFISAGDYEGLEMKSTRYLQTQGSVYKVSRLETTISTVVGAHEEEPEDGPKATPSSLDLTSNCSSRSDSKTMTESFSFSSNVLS
Method: (§1) Tachykinin-mediated inositol phosphate accumulation was measured in UC11 or SKLKB82#3 cells in the presence and absence of NK1 or NK2 receptor antagonists, respectively. Tissues were incubated in Krebs-Henseleit buffer at 37° C. with 95% O2 -5% CO2 gassing. Tissues were then incubated with fresh buffer containing 100 μCi of myo-[2-3H(N)] inositol at 37° C. for 60 min with gentle gassing. After washing twice in 5 ml room temperature buffer containing 10 mM LiCl, tissues were incubated for 30 min at room temperature with a buffer change at 15 min. Buffer was removed and Krebs-Henseleit buffer (containing 40 μg/ml bacitracin, 4 μg/ml each of leupeptin and chymostatin, 0.1% bovine serum albumin and 10 mM each of thiorphan and LiCl) added. After 15 min, SP was added to UC11 cells or NKA to SKLKB82#3 cells at various concentrations to start the reaction. After incubation for 60 min at room temperature the reaction was terminated by addition of 930 μl chloroform: methanol (1:2 by volume) to each tube, followed by 310 μl chloroform and 310 μl doubly distilled water. Samples were vortexed, centrifuged, and 0.9 ml of the aqueous (top) phase removed and added to 2 ml ddH2 O. The mixture was vortexed and loaded onto a 50% Bio-Rad AG 1-X8 (formate form, 100-200 mesh) exchange column (Bio-Rad Laboratories, Hercules, Calif.). The columns were washed, in order, with: 1) 10 ml doubly distilled water, 2) 5 ml of 5 mM disodium tetraborate/60 mM sodium formate, and 3) 5 ml of 1M ammonium formate/0.1M formic acid. The third elution was collected and 1 ml counted in 7 ml scintillation fluid. A 50 μl aliquot of the organic (bottom) phase was removed, dried in a scintillation vial and counted in 7 ml scintillation fluid.
(§2) The ratio of DPM in the aqueous phase aliquot (total inositol phosphates) to the DPM in the 50 μl organic phase aliquot (total [^3 H]inositol incorporated) was calculated for each sample. Data are expressed as a percent of agonist-induced accumulation of [^3 H]-inositol phosphates over basal levels. The ratios in the presence of test compound and/or standards were compared to the ratios for control samples (i.e. no stimulating agonist). Dose-response graphs were constructed and the abilities of the test compounds to inhibit tachykinin-induced phosphatidyinositol turnover determined with the aid of a computer program. […] Data is expressed as percent stimulation of total inositol phosphate accumulation over basal levels and normalized to the maximum response produced by SP. […] Schild analysis is performed using dose response curves (such as those presented in FIGS. 1a and 1b) to obtain a value indicative of the strength of a competitive antagonist and is expressed as the pA2, which is the negative logarithm of the molar concentration of antagonist which reduces the effect of a dose of agonist to one-half of that expected at the dose of agonist.

[2] = biological target: T2, NK2 receptor (Bos taurus, UniProt P05363); experiment: Antagonism of NK2 receptor mediated (NKA-induced) phosphatidylinositol turnover in SKLKB82#3 cells; assay type: cell-based; conditions: SKLKB82#3 cells, NKA; Schild slope, mean (95% confidence limits)
T2 construct: expressed in transfected cells; host or cells: SKLKB82#3 cells
T2 sequence (P05363 1-384): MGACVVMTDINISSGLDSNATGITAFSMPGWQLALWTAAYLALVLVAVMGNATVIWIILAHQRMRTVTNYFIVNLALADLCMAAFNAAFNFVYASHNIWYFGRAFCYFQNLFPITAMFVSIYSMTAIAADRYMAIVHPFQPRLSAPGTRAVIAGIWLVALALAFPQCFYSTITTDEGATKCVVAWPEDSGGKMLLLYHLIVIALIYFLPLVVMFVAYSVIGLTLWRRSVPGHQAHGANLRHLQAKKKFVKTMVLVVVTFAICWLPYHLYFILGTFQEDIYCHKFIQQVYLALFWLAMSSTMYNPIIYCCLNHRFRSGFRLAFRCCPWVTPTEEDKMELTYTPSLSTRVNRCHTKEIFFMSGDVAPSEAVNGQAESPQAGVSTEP
Method: as §1
as §2, with “The ratios in the presence of test compound and/or standards were compared to the ratios for control samples (i.e. no stimulating agonist).” left out

[3] = biological target: T3, NK1 receptor (Cavia porcellus, UniProt P30547); experiment: Antagonism of SP-induced plasma protein extravasation in guinea pig trachea; assay type: in vivo; conditions: guinea pig, iv; i.v. 2 min prior to SP; mean (95% confidence limits); at least 3 doses, at least 4 animals per dose; read-out: ED50 for inhibition of SP-induced plasma protein extravasation
T3 construct: evaluated in guinea pig lungs; tissue Keystone Biologicals, Cleveland, OH; host or cells: guinea pig lung
T3 sequence (P30547 whole entry): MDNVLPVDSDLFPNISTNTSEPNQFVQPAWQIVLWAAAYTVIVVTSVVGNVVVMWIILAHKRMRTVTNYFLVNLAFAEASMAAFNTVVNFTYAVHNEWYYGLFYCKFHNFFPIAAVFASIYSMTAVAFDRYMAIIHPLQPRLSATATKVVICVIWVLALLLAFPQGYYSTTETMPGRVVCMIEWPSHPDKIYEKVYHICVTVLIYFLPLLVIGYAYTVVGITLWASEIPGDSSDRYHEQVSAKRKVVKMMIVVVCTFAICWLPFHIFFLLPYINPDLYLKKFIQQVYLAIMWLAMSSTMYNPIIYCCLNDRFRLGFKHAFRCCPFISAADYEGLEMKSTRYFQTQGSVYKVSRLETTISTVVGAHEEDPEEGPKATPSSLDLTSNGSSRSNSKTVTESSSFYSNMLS
Method: SP-induced protein leakage through postcapillary venules was assessed by measuring Evans Blue dye accumulation in guinea pig trachea. Animals were anesthetized with pentobarbital then injected with Evans Blue dye (20 mg/kg, i.v., prepared in 0.9% NaCl solution). One minute after dye administration, the antagonist was administered (i.v.) followed by SP (0.3 nmole/kg, i.v.) and, after 5 min, excess dye removed from the circulation by transcardiac perfusion with 50 ml 0.9% NaCl solution. The trachea and primary bronchi were removed, blotted dry and weighed. Dye quantitation was performed spectrophotometrically ([…]) after extracting tissues in formamide for 24 hr at 50° C.. Values were subtracted from background (dye only, no agonist). ED50 (dose of compound which inhibits SP-induced plasma protein extravasation by 50%) was calculated from linear regression analysis.

[4] = test system: NK1 and NK2 receptors; experiment: Modulation of respiratory effects produced by capsaicin aerosol in conscious guinea pigs; assay type: in vivo, guinea pig
Method: (§3) In vivo experiments were performed using male Duncan Hartley guinea pigs (250-350g). Changes in conscious breathing patterns were monitored in four animals simultaneously using modified whole body plethysmography consisting of four small plexiglass boxes each connected to a reference box via Validyne DP 45-16 differential pressure transducers. The 4 boxes were equipped with an air supply line (also used for aerosol delivery) and an exhaust air line. Supply and exhaust lines were of the same length and narrow bore and arose from a common supply chamber and vented to a common exhaust chamber. This system was used to ensure that fluctuations in supply air and atmospheric pressure would remain in phase and be eliminated from the net signal by the differential pressure transducers. The analog pressure signals were digitalized via a Data Translation DT2821 A to D board. Data were collected at a rate of 100 samples/second/animal. Each cycle of pressure change was analyzed using the following parameters: rising and falling slope determined between minimum and maximum pressures, the ratio of rising over falling slope, and the magnitude of the change between initial trough pressure and peak cycle pressure. Using these values (and observing the animals) the pressure cycles were characterized into normal breaths, forced exhalations (apparent by abdominal heaving), significant respiratory events (SREs; usually coughs, less often sneezes or gasps which were characterized by transient, extremely large pressure increases which were distinguishable from noise) and movement/noise with a PCAT 286 running a System V UNIX operating system. Dyspnea was defined as a significant, sustained increase in plethysmograph pressure which was associated with an observable shift to labored breathing in the animal.
(§4) During the course of a typical experiment in which airway responsiveness to various bronchoconstricting agents was examined, aerosols were delivered for 19 min (0.33 ml/min) using a DeVilbiss Ultraneb 99 ultrasonic nebulizer and animals monitored during this time. Prior to nebulization, 1 min of resting breathing was collected to establish a baseline pressure. […] The vehicle for nebulization of all bronchoconstrictive agents was phosphate buffered saline (pH 7.4) which elicited no respiratory effects itself. Putative tachykinin antagonists were administered either (i.v.) 20 min prior to onset of aerosol exposure or orally 1 hour prior to onset (to guinea pigs after an overnight fast).
Capsaicin aerosol is known to promote release of the tachykinins SP and NKA from sensory nerves in the airways of guinea pigs which may then act upon NK1 and NK2 receptors, respectively to elicit respiratory effects.

[5] = test system: NK2 receptor; experiment: Antagonism of NKA-induced respiratory effects in conscious guinea pigs; assay type: in vivo, guinea pig; conditions: for dyspnea incidence: i.v. 20 min prior to NKA aerosol (0.05%)
Method: as §3, §4

**Q.** `COc1cc(C(=O)N2CCC(CCN3CCC(C(N)=O)(c4ccccc4)CC3)(c3ccc(Cl)c(Cl)c3)C2)cc(OC)c1OC` (racemic) [Example 3A, 1-[2-[3-(3,4-dichloro-phenyl)-1-(3,4,5-trimethoxy-benzoyl)-pyrrolidin-3-yl]-ethyl]-4-phenyl-piperidine-4-carboxylic acid amide hydrochloride] was tested. Which “relative antagonism of NK1 and NK2 receptors (in words)” value [1] did it give?
**A.** antagonized both NK1 and NK2 receptors by nearly equivalent amounts

**Q.** And the NK-1 receptor slope ([1]; UC11 cells, SP, Schild slope, mean (95% confidence limits))?
**A.** 0.90

**Q.** What about the NK-2 receptor slope [2] of the same compound?
**A.** 0.73

**Q.** And the ED50 [3]?
**A.** 0.17 mg/kg

**Q.** What about the dyspnea incidence ([4]; 10 mg/kg, i.v. 20 min prior to capsaicin aerosol (0.001%)) of the same compound?
**A.** 89%

**Q.** And the dyspnea incidence ([4]; 25 mg/kg, oral gavage 1 hr prior to capsaicin aerosol (0.001%))?
**A.** 80%

**Q.** And the dyspnea incidence ([4]; 50 mg/kg, oral gavage 1 hr prior to capsaicin aerosol (0.001%))?
**A.** 70%

**Q.** And the dyspnea incidence ([4]; 100 mg/kg, oral gavage 1 hr prior to capsaicin aerosol (0.001%))?
**A.** 50%

**Q.** And the “effect on capsaicin-induced respiratory effects (in words)” value ([4]; intravenous)?
**A.** attenuate capsaicin-induced respiratory effects

**Q.** What about the “effect on capsaicin-induced respiratory effects (in words)” value ([4]; oral) of the same compound?
**A.** antagonize the effects of capsaicin aerosol when administered orally

**Q.** How did the “effect on capsaicin-induced respiratory effects (in words)” value ([4]; oral) turn out when `COc1cccc(OC)c1C(=O)N1CCC(CCN2CCC(C(N)=O)(c3ccccc3)CC2)(c2ccc(Cl)c(Cl)c2)C1` (stereo not drawn) [Example 5, 1-[2-[3-(3,4-dichloro-phenyl)-1-(2,6-dimethoxy-benzoyl)-pyrrolidin-3-yl]-ethyl]-4-phenyl-piperidine-4-carboxylic acid amide] was run?
**A.** antagonize the effects of capsaicin aerosol when administered orally

**Q.** Which “relative antagonism of NK1 and NK2 receptors (in words)” value [1] does the source give for `COc1cccc(OC)c1C(=O)N1CCC(CCN2CCC(C(N)=O)(c3ccccc3)CC2)(c2ccc(Cl)c(Cl)c2)C1` (stereo not drawn) [Example 5A, 1-[2-[3-(3,4-dichloro-phenyl)-1-[2,6-dimethoxy-benzoyl)-pyrrolidin-3-yl]-ethyl]-4-phenylpiperidine-4-carboxylic acid amide hydrochloride] here?
**A.** antagonized both NK1 and NK2 receptors by nearly equivalent amounts

**Q.** And the dyspnea incidence ([5]; 5 mg/kg)?
**A.** 60%

**Q.** What about the dyspnea incidence ([5]; 10 mg/kg) of the same compound?
**A.** 54%

**Q.** What about the “effect on NKA-induced respiratory effects (in words)” value ([5]; NKA aerosol, dose dependent) of the same compound?
**A.** reduced the effects of NKA aerosol
